From publication PMC8018184, “Evaluation of the Pharmacophoric Role of the O–O Bond in Synthetic Antileishmanial Compounds: Comparison between 1,2-Dioxanes and Tetrahydropyrans” (Journal of Medicinal Chemistry, 2020)

What was measured:
[1] = Cytotoxicity test on Vero cells (alamarBlue); assay type: cell-based, African green monkey; details: chlorocebus sabaeus, Vero cells (kidney epithelial cell line); 72 h, alamarBlue; read-out: CC50 (50% cytotoxic concentration) on Vero cells
Method: (§1) Vero cells (kidney of African green monkey epithelial cell line) were cultured at 37 °C in the MEM liquid medium supplemented with 10% FBS (EuroClone SpA), 1% levoglutamine (EuroClone SpA), and 1% penicillin–streptomycin (EuroClone SpA). THP-1 cells (human leukemia monocytic cell line) were cultured at 37 °C in the RPMI 1640 (EuroClone SpA) liquid medium supplemented with 10% FBS (EuroClone SpA), 1% levoglutamine (EuroClone SpA), 1% penicillin–streptomycin, and mercaptoethanol (Gibco) 50 μM.
(§2) The cytotoxicity of the compounds was determined using mammalian kidney epithelial cells (Vero cell line) and human acute monocytic leukemia cell line (THP-1). Cells were seeded (10^5 cells mL^–1) on 96-well plates with the complete MEM medium and incubated with test compounds at 37 °C in a 5% CO2 incubator. After 72 h of incubation, 20 μL of the alamarBlue reagent was added to each well and incubated at 37 °C for 24 h. Reduction of resazurin to resorufin was evaluated after 24 h by absorbance measurement at the Multiskan ascent plate reader (Thermo Fisher Scientific Inc.,) at 550 and 630 nm. […] Each experiment was performed in duplicate.

[2] = system: intramacrophage amastigotes of L. donovani; experiment: Amastigote growth inhibition assay in infected THP-1 cells (Giemsa, infectivity index); assay type: cell-based, Leishmania donovani; details: for IC50: Leishmania donovani, intracellular amastigotes in THP-1, 72 h, read-out: IC50 against amastigotes of L. donovani
Method: To evaluate the efficacy of the compounds on the intracellular form of L. donovani, human acute monocytic leukemia cell line (THP-1) was infected with L. donovani promastigotes. Cells were harvested and seeded in a 96-well plate (10^5 cells mL^–1) in the complete RPMI 1640 medium, and PMA (0.1 μM, Cayman Chemical Company, Ann Arbor, Michigan, USA) was added for obtaining maturation and cell adherence. Cells were incubated at 37 °C in a 5% CO2 incubator. After 48 h, the medium was replaced with the fresh medium containing stationary-phase promastigotes that were then phagocyted by monocytic cells and transformed into intracellular amastigotes. After 24 h of incubation, newly synthesized compounds were added and the plates were incubated at 37 °C in a 5% CO2 incubator for 72 h. After incubation, wells were washed, fixed, and stained with Giemsa. Staining was detected using a Nikon Eclipse E200 light microscope (Nikon, Tokyo, Japan). The infectivity index (% of infected macrophages × average number of amastigotes per macrophage) was determined by counting at least 100 cells in duplicate cultures.

[3] = Cytotoxicity test on THP-1 cells (alamarBlue); assay type: cell-based; details: human, THP-1 cells (acute monocytic leukemia cell line); CSV supplement; read-out: CC50 against human acute monocytic leukemia cell line (THP-1)
Method: as §1, §2
Cytotoxicity in THP-1 cell line
We performed additional cytotoxicity tests employing THP-1 cell line. We also calculated the
corresponding selectivity indexes, as the ratio between CC50 of THP-1 cell line and IC50 on amastigotes
THP-1 cells than on VERO cells; thus showing a not significant variance of selectivity index.
Table S3. Inhibitory activity of tetrahydropyrans 3 and endoperoxides 2 against amastigotes of L.
donovani, cytotoxicity in human acute monocytic leukemia cell line (THP-1) and selectivity index (SI).
Tetrahydropyran IC50 CC50 Endoperoxide IC50 CC50
a (µM)b (µM)c a (µM)b (µM)c
a Compounds tested as racemates. b IC50 represents the concentration of a compound that causes 50% growth inhibition.
Results represent the mean (± standard deviation, SD) of three independent experiments performed in duplicate. c CC50
represents 50% cytotoxic concentration on THP-1 cells. d Selectivity index (SI) = CC50/IC50. […]

[4] = THP-1 CC50 / IC50 on amastigotes
[5] = Vero CC50 / IC50 on amastigotes

SMILES: CCCCC1(CCCC)C[C@H](CNCCCn2ccnc2)[C@](C)(OC)OO1 [2a]
- CC50 at 72 h [1]: 72 ± 6.6 µM
- IC50 [2]: 12.2 ± 1.2 µM
- Selectivity index (SI) = CC50/IC50 [2, 4]: 7.0
- Selectivity index (SI) = CC50/IC50 [2, 5]: 5.9
- CC50 at 72 h [3]: 86 µM

SMILES: CCCCC1(CCCC)CO[C@@](C)(OC)[C@@H](CNCCCn2ccnc2)C1 (racemic) [3a, N-((5,5-Dibutyl-2-methoxy-2-methyltetrahydro-2H-pyran-3-yl)methyl)-3-(1H-imidazol-1-yl)propan-1-amine]
- CC50 at 72 h [1]: 35.2 ± 4.7 µM
- IC50 [2]: 3.4 ± 0.6 µM
- Selectivity index (SI) = CC50/IC50 [2, 4]: 7.6
- Selectivity index (SI) = CC50/IC50 [2, 5]: 10.3
- CC50 at 72 h [3]: 26 µM
